Source: the supplement of paper PMC4314810
± gives the standard deviation of the averaged measurements.

test system: MCF7; experiment: HRG-induced Akt activation (dPAkt = log2 pAkt/Akt HRG-stimulated minus log2 pAkt/Akt basal) (log2 ratio difference); higher = stronger HRG-induced Akt(T308) phosphorylation; conditions: miRNA mimic concentration 10 nM; time after transfection 72 h; heregulin 10 ng/ml; stimulation time 1 h
Procedure, shortened: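 MCF7 cells ([…], 96-well plates) carrying one of 879 miRNA mimics, transfected at 10 nM final with Lipofectamine RNAiMax in two biological replicates, were stimulated after 72 h with 10 ng/ml heregulin-beta1 for 1 h or left unstimulated. Phospho-Akt(T308) and total Akt in cells fixed with 4% PFA were read by In-Cell Western on an Odyssey and corrected for column-wise fixation decay to give log2(pAkt/Akt). Heregulin-induced Akt activation is the replicate mean of stimulated minus unstimulated ratios.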

In order of falling “HRG-induced Akt activation (log2)” value:
1. AGGGGUGGUGUUGGGACAGCUCCGU  2.91 ± 0.23
2. CGGGUGGAUCACGAUGCAAUUU  2.37 ± 0.063
3. CUCUUGAGGGAAGCACUUUCUGU  2.16 ± 0.45
4. ACGGAUGUUUGAGCAUGUGCUA  2.15 ± 0.13
5. UCUUUGGUUAUCUAGCUGUAUGA  1.96 ± 0.15
6. GAUGAUGAUGGCAGCAAAUUCUGAAA  1.87 ± 0.33
7. AGCUGGUGUUGUGAAUCAGGCCG  1.87 ± 0.075
8. UCCGGUUCUCAGGGCUCCACC  1.83 ± 0.26
9. UUGAGAAUGAUGAAUCAUUAGG  1.82 ± 0.5
10. GCGACCCACUCUUGGUUUCCA  1.8 ± 0.034
11. UUCUGGAAUUCUGUGUGAGGGA  1.78 ± 0.2
12. GUGUUAAUUAAACCUCUAUUUAC  1.76 ± 0.034
13. AAAACGGUGAGAUUUUGUUUU  1.75 ± 0.2
14. UUCACAGUGGCUAAGUUCCGC  1.73 ± 0.22
15. ACUUACAGACAAGAGCCUUGCUC  1.68 ± 0.16
16. CUGGUACAGGCCUGGGGGACAG  1.68 ± 0.29
17. UGGCAGGGAGGCUGGGAGGGG  1.63 ± 0.15
18. UGCCUACUGAGCUGAUAUCAGU  1.62 ± 0.029
19. AGAGCUUAGCUGAUUGGUGAAC  1.58 ± 0.27
20. AAAAGUACUUGCGGAUUUUGCU  1.58 ± 0.21
21. CAUUAUUACUUUUGGUACGCG  1.58 ± 0.02
22. AGAAUUGUGGCUGGACAUCUGU  1.55 ± 0.022
23. GGUGGCCCGGCCGUGCCUGAGG  1.55 ± 0.26
24. UUUUGCACCUUUUGGAGUGAA  1.55 ± 0.13
25. AUCGUGCAUCCCUUUAGAGUGU  1.54 ± 0.1
26. CUGACUGUUGCCGUCCUCCAG  1.53 ± 0.13
27. AAAAGCUGGGUUGAGAGGA  1.507 ± 0.011
28. AGGGUAAGCUGAACCUCUGAU  1.51 ± 0.17
29. UCUCCCAACCCUUGUACCAGUG  1.51 ± 0.26
30. AAUCAUGUGCAGUGCCAAUAUG  1.51 ± 0.15
31. UUAUAAAGCAAUGAGACUGAUU  1.5 ± 0.79
32. CUCCUGAGCCAUUCUGAGCCUC  1.48 ± 0.25
33. GGUUUGGUCCUAGCCUUUCUA  1.47 ± 0.2
34. UGAGGUAGUAGUUUGUACAGUU  1.47 ± 0.12
35. AAUCGUACAGGGUCAUCCACUU  1.46 ± 0.051
36. CUAGACUGAAGCUCCUUGAGG  1.46 ± 0.25
37. AGCAGCAUUGUACAGGGCUAUGA  1.45 ± 0.015
38. GCGACCCAUACUUGGUUUCAG  1.44 ± 0.25
39. UGUUUUGAUAACAGUAAUGU  1.44 ± 0.064
40. AUUCUAAUUUCUCCACGUCUUU  1.44 ± 0.29
41. GAACGCCUGUUCUUGCCAGGUGG  1.4 ± 0.093
42. UACAGUAUAGAUGAUGUACU  1.39 ± 0.57
43. UGGUUGUAGUCCGUGCGAGAAUA  1.37 ± 0.19
44. UUGCAUAGUCACAAAAGUGAUC  1.36 ± 0.096
45. AACAUCACAGCAAGUCUGUGCU  1.32 ± 0.38
46. UUGCAUAUGUAGGAUGUCCCAU  1.32 ± 0.079
47. UGGGUUCCUGGCAUGCUGAUUU  1.27 ± 0.13
48. AAAACCGUCUAGUUACAGUUGU  1.26 ± 0.26
49. AAAACUGUAAUUACUUUUGUAC  1.26 ± 0.31
50. UGAGGUAGUAGAUUGUAUAGUU  1.22 ± 0.24
51. AAUAUUAUACAGUCAACCUCU  1.21 ± 0.51
52. CUGCAAAGGGAAGCCCUUUC  1.21 ± 0.33
53. AGGGGGAAAGUUCUAUAGUCC  1.2 ± 0.07
54. AUCCCACCUCUGCCACCA  1.2 ± 0.059
55. ACUCCAUUUGUUUUGAUGAUGGA  1.19 ± 0.29
56. UCCCCCAGGUGUGAUUCUGAUUU  1.14 ± 0.29
57. UACUCAGGAGAGUGGCAAUCAC  1.1 ± 0.15
58. UGAGGUAGUAGGUUGUGUGGUU  1.08 ± 0.14
59. ACCUUGCCUUGCUGCCCGGGCC  1.06 ± 0.23
60. UCACACCUGCCUCGCCCCCC  1.05 ± 0.31
61. UAACACUGUCUGGUAACGAUGU  1.04 ± 0.078
62. ACUCUAGCUGCCAAAGGCGCU  1.02 ± 0.67
63. CAAGCUCGUGUCUGUGGGUCCG  0.995 ± 0.35
64. GUCCCUCUCCAAAUGUGUCUUG  0.988 ± 0.27
65. UGGUGCGGAGAGGGCCCACAGUG  0.984 ± 0.11
66. AAAAGUAAUUGCGGAUUUUGCC  0.977 ± 0.53
67. ACUGUUGCUAAUAUGCAACUCU  0.931 ± 0.72
68. CCUCUGGGCCCUUCCUCCAG  0.844 ± 0.012
69. AGCUCGGUCUGAGGCCCCUCAGU  0.753 ± 0.54
70. UAAGUGCUUCCAUGCUU  0.459 ± 0.22
